The results in this text go back to ChEMBL document CHEMBL1135042, “Structure-activity relationships for analogues of the phenazine-based dual topoisomerase I/II inhibitor XR11576” (Bioorg Med Chem Lett, 2002).

The nature of assay [1]: Ratio of IC50 values against H69/P and […] cell lines. The format is functional.
Assay [2] deals with NCI-H69. As to the kind of experiment: In vitro cytotoxicity against multi-drug resistant human small cell lung carcinoma H69/LX4. The format is functional, cell-based.
Assay [3] concerns NCI-H69. Put plainly: In vitro cytotoxicity against human small cell lung carcinoma H69/P. The class given is functional, cell-based.

In general, IC50 refers to the concentration at which inhibition is half-maximal.

Regarding `CC/N=C(\S)Oc1ccc2c(c1)cc(C(=O)NCCN(C)C)c1nc3ccccc3nc12`, in assay [1], the Ratio amounted to 1.12. Also, the IC50 with NCI-H69 [2] was 583 nM; in the assay with NCI-H69 [3], 519 nM.
With `CN(C)CCNC(=O)c1cccc2ncc(-c3ccc([N+](=O)[O-])cc3)nc12`, the Ratio in assay [1] is recorded as 1.41. In addition, the IC50 with NCI-H69 [2] was found to be 3380 nM; in the assay on NCI-H69 [3] it was 2400 nM.
As for `C#CCOc1ccc2c(c1)cc(C(=O)NCCN(C)C)c1nc3ccccc3nc12`, the Ratio in assay [1] is recorded as 1.4. The IC50 is 613 nM in the assay on NCI-H69 [2] and 435 nM in the assay on NCI-H69 [3].
In the same order, the values of `CN(C)CCNC(=O)c1cc2ccccc2c2nc3ccccc3nc12` are 1.26, 511 nM and 406 nM.
For `CN(C)CCNC(=O)c1cccc2nc(-c3ccccc3)c(-c3ccccc3)nc12`, the IC50 with NCI-H69 [2] and with NCI-H69 [3] was greater than 100000 nM in each case.
As to `CN(C)CCNC(=O)c1cccc2ncc(-c3ccccc3)nc12`, in assay [1], the Ratio came out at 0.9. Moreover, the results for the IC50 in the assay on NCI-H69 [2] and in the assay on NCI-H69 [3] were 3590 nM and 3930 nM, respectively.
Taken in the same sequence, the figures for `Cc1cccc2nc3c(nc12)c(C(=O)NCCN(C)C)cc1ccccc13` were 0.8, 320 nM and 417 nM.
Regarding `CN(C)CCNC(=O)c1cccc2nc3c(nc12)-c1cccc2cccc-3c12`, the Ratio in assay [1] is 0.93. Besides, the values for the IC50 in the assay with NCI-H69 [2] and with NCI-H69 [3] were 330 nM and 350 nM, respectively.
As to `CN(C)CCNC(=O)c1cc2cc(OC(=O)Nc3ccccc3)ccc2c2nc3ccccc3nc12`, the Ratio in assay [1] came out at 2.42. For the same compound, the values for the concentration for half-maximal inhibition (IC50) with NCI-H69 [2] and in the assay with NCI-H69 [3] were 252 nM and 104 nM, respectively.
In the case of `CN(C)CCNC(=O)c1cc2cc(OCCCO)ccc2c2nc3ccccc3nc12`, the Ratio in assay [1] was 3.87. For the same compound, the IC50 with NCI-H69 [2] is 2030 nM; in the assay with NCI-H69 [3] it was 523 nM.
In the case of `COc1ccc2c(c1)cc(C(=O)NCCN(C)C)c1nc3ccccc3nc12`, in assay [1], the Ratio is 1.3. The IC50 was found to be 358 nM with NCI-H69 [2] and 282 nM in the assay with NCI-H69 [3].
On to `CN(C)CCNC(=O)c1cc2cc(OCc3ccccc3)ccc2c2nc3ccccc3nc12`, for which the Ratio in assay [1] came out at 1.29. For the same compound, the results for the IC50 with NCI-H69 [2] and with NCI-H69 [3] were 1580 nM and 1220 nM, respectively.
For `COCCOc1ccc2c(c1)cc(C(=O)NCCN(C)C)c1nc3ccccc3nc12`, the Ratio in assay [1] is on record as 1.23. Also, the concentration for half-maximal inhibition (IC50) turned out to be 545 nM with NCI-H69 [2] and 445 nM with NCI-H69 [3].
As for `CN(C)CCNC(=O)c1cc2cccc([N+](=O)[O-])c2c2nc3ccccc3nc12`, in assay [1], the Ratio is 1.3. Also, the IC50 with NCI-H69 [2] was determined as 584 nM; with NCI-H69 [3] it was 458 nM.
In the case of `CN(C)CCNC(=O)c1cc2cccc(N)c2c2nc3ccccc3nc12`, in assay [1], the Ratio worked out at 1.33. Also, the values for the IC50 with NCI-H69 [2] and in the assay on NCI-H69 [3] were 345 nM and 259 nM, respectively.
Taken in the same sequence, the figures for `CN(C)CCNC(=O)c1cc2cc(OCCN3CCOCC3)ccc2c2nc3ccccc3nc12` were 1.17, 592 nM and 506 nM.
Consider `CN(C)CCNC(=O)c1cc2cc(O)ccc2c2nc3ccccc3nc12`, for which the Ratio in assay [1] came to 2.12. Besides, the IC50 in the assay with NCI-H69 [2] was 198 nM; in the assay with NCI-H69 [3], 94 nM.
For the compound `COc1cccc2c1ccc1nc3cccc(C(=O)N[C@@H](C)CN(C)C)c3nc12`, the IC50 with NCI-H69 [2] and in the assay on NCI-H69 [3] was 20 nM throughout.
On to `CN(C)CCNC(=O)c1cccc2ncc(-c3ccc4ccccc4c3)nc12`, for which the Ratio in assay [1] is reported as 0.92. Also, the half-maximal inhibitory concentration (IC50) worked out at 1670 nM with NCI-H69 [2] and 1820 nM with NCI-H69 [3].
